What follows are compounds tested on genotype 1b (Con-1) HCV replicon in Huh-7 cells (assay: HCV replicon luciferase assay (1b replicon)). Conditions: Hepatitis C virus, 72 h; genotype 1b replicon, Huh-7, Renilla luciferase, 3 days incubation; read-out: EC50.
Format: cell-based
Experimental: The cell lines used to evaluate compounds consist of a human hepatocyte derived cell line (Huh-7) that constitutively expresses a genotype 1b (Con-1) HCV replicon or a genotype 1b (Con-1) HCV replicon with an asparagine replacing the cysteine at amino acid 316, or a genotype 2a (JFH-1) replicon, containing a Renilla luciferase reporter gene. These cells were maintained in Dulbecco's modified Eagle medium (DMEM) containing 10% FBS, 100 U/mL penicillin/streptomycin and 1.0 mg/mL G418.
HCV Replicon Luciferase Assay.
After 3 days incubation at 37° C., cells were analyzed for Renilla Luciferase activity using the EnduRen substrate (Promega cat #E6485) according to the manufacturer's directions. Briefly, the EnduRen substrate was diluted in DMEM and then added to the plates to a final concentration of 7.5 μM. The plates were incubated for at least 1 h at 37° C. then read on a Viewlux Imager (PerkinElmer) using a luminescence program.
For `CCOc1cc2oc(-c3ccc(F)cc3)c(C(=O)NC)c2cc1-c1ccc(OC)c(C(=O)NC23CC(C2)C3)c1` [Example 11, 5-(3-(Bicyclo[1.1.1]pentan-1-ylcarbamoyl)-4-methoxyphenyl)-6-ethoxy-2-(4-fluorophenyl)-N-methylbenzofuran-3-carboxamide], the EC50 was 9.63 nM.
Compound `CNC(=O)c1c(-c2ccc(F)cc2)oc2cc(OCC(F)(F)F)c(-c3cnc(OC)c(C(=O)NC45CC(C4)C5)c3)cc12` [Example 30, N-(Bicyclo[1.1.1]pentan-1-yl)-5-(2-(4-fluorophenyl)-3-(methylcarbamoyl)-6-(2,2,2-trifluoroethoxy)benzofuran-5-yl)-2-methoxynicotinamide] has an EC50 of 10 nM.
Compound `CNC(=O)c1c(-c2ccc(F)cc2)oc2cc(OCC(F)(F)F)c(-c3cnc(OC)c(C(=O)NC(C)(C)c4ncon4)c3)cc12` [Example 31, N-(2-(1,2,4-Oxadiazol-3-yl)propan-2-yl)-5-(2-(4-fluorophenyl)-3-(methylcarbamoyl)-6-(2,2,2-trifluoroethoxy)benzofuran-5-yl)-2-methoxynicotinamide] has an EC50 of 3.21 nM.
